From patent publication US8617607B2, “Sustained release formulations of psychoactive drugs” (TYRX, Inc., priority 2008, dated 2013)

Details: 0.1% solution, PBS, 37° C.

Question: For `Cc1cc2c(s1)Nc1ccccc1N=C2N1CCN(C)CC1` [Olanzapine, 2-methyl-4-(4-methyl-1-piperazinyl)-10H-thieno[2,3-b][1,5]benzodiazepine], which “time for which olanzapine was stable” value is on record?
Answer: ≥ 14 days
